Results published in article PMC4492750, “The discovery of a selective and potent A2a agonist with extended lung retention” (Pharmacology Research & Perspectives, 2015).

Assays:
[1] = tested on: LPS-induced BAL neutrophils; assay: LPS-induced lung inflammation model, neutrophils in BAL fluid; format: in vivo, rat; conditions: for Reduction of total cells and neutrophilia in BAL fluid: 10 μg/kg i.t.
Procedure: The efficacy of the compound on neutrophils in BAL fluid is expressed as per cent inhibition of the full window (negative veh/veh controls vs. the positive veh/LPS controls): Inhibition (%) of LPS-induced BAL neutrophils by compound 2 was calculated using the following formula: [drawing 1] where A is the average in the group administered with vehicle and challenged with LPS; B is the average in the group administered with vehicle and challenged with saline; and C is the average in the group administered with test compound and challenged with LPS.
Animals in all efficacy studies were dosed intratracheally as described above in a buffered saline vehicle (pH 5) containing sodium chloride (8.5mg/ml), citric acid (0.28mg/ml) and sodium citrate (0.5mg/ml). The compound was dissolved in saline when given intravenously (0.9% NaCl) to the swivelled rats.
[…] Each rat was given LPS from the Pseudomona Aeruginosa bacteria (1µg/rat, 5µg/ml saline, Sigma-Aldrich, Sweden).
24 hours after the LPS challenge, rats were anaesthetized and exsanguinated via a cardiac incision. A tube was inserted and ligated to the trachea. The tube was connected to a syringe with 4ml PBS (without Ca^2+/Mg^2+) and a lavage of the whole lung was performed manually. The BAL fluid was collected individually in polyethylene tubes and kept on ice until further processed.
The BAL fluid was centrifuged and the supernatant separated from the cell pellet that was resuspended in 1.0ml of PBS. The total number of cells and cell differentia was counted in an automated cell counter and haematology analyzer (SYSMEX XT-1800iV, software for the rat BALF).

human A2b receptors = molecular target: T1, human A2b receptors (Homo sapiens, UniProt P29275); assay: Human A2b receptor pharmacology: cAMP Alphascreen in CHO-K1 cells; format: cell-based; conditions: average (SD)
T1 construct: expressed in transfected cells; host or cells: CHO-K1
T1 sequence (P29275 1-332): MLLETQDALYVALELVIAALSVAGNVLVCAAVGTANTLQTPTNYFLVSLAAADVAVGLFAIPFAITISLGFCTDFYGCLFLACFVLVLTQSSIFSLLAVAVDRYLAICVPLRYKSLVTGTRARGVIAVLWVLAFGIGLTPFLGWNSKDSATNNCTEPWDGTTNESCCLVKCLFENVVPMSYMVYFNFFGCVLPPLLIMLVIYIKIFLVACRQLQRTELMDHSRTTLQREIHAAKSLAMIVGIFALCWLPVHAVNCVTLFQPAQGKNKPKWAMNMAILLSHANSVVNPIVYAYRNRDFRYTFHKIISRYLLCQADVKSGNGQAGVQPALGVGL
Procedure: • Human A2a and A2b receptor pharmacology: Chinese hamster ovary CHO-K1 cells stably expressing human A2a and A2b receptors were used to determine substances agonistic potency and intrinsic activity. […] The signal corresponding to adenosine at 100 μmol/L was used to define 100% intrinsic activity. • Human A3 receptor pharmacology: A3 receptor Gi coupling was measured by GTPγ ^35[S] filter assay at serial dilutions of compound using membranes from Perkin-Elmer. The signal corresponding to the maximal response of NECA at 100 μmol/L was set to 100% intrinsic activity. • Lipopolysaccharide (LPS)-induced TNFα production in primary human peripheral blood mononuclear cells (hTNFα PBMC) and rat mononuclears (rTNFα splenocytes): Human PBMC and rat mononuclear spleen cells were incubated with serial dilutions of compound and stimulated with LPS.
Chinese hamster ovary CHO-K1 cells stably expressing human A2a and A2b receptors were stored as 1ml aliquots at -150 °C in freezing medium, thawed immediately prior to assay. […] Cells (10000 cells/well) were incubated with test compounds prepared as serial dilutions. Potency (EC50) and efficacy (% of maximal response) were calculated from data fitted to a 4-parameter logistic function. The signal of 10µM NECA represented the maximal cAMP response (i.e. 100% of efficacy) produced by these cells.

A2a = A2a (Homo sapiens, UniProt P29274); assay: Selectivity panel of 98 targets in binding assays (Ricerca): A2a; design: Ricerca (contract panel); conditions: 10 μmol/L of compound; data on AstraZeneca file
Procedure: The medicinal chemistry synthetic optimization focused on the position C2 and N6 (Fig.2) with the aim to discover a compound with high A2a potency, high selectivity, low lipophilicity (logD), and high solubility. […] Selectivity of compound 2 was tested across 98 targets in binding assays (www.ricerca.com). The only identified significant hits (i.e., >50% effect at 10 μmol/L of compound 2) were A2a (∼100%) and A3 (∼84%) data on AstraZeneca file.

[2] = In vivo pharmacokinetics in rats (i.v., oral, intratracheal)
Procedure: Rat PK was determined after an i.v. dose of 0.1μmol/kg (approximately 50μg/kg, 1ml/kg, TEG:H2O 50:50) given via a catheter in vena jugularis. The PK after oral administration was performed at a dose of 6μmol/kg (approximately 3mg/kg, 4ml/kg, 0.5% HPMC) given by gavage. Intratracheal PK was determined at 0.03 to 0.6μmol/kg (17 to 300μg/kg, 1ml/kg, in a vehicle containing sodium chloride (8.5mg/ml), EDTA (0.1mg/ml), citric acid (0.15mg/ml), sodium citrate (0.5mg/ml) and polysorbate 80 (0.2mg/mL) in purified water). The i.t. dose was given to anaesthetized (isofluran) rats, positioned at approximately 30° angle (head up) and the compound was administered in the trachea using a modified metal cannula. Rats were put back in their cages while regaining consciousness. Serial blood sampling of 100 to 200µl was performed after i.v. and p.o. dosing at pre-defined timepoints. Blood was mixed 1:4 with purified water containing heparin (10 to 30U/ml) in order to haemolyse the blood cells, and then placed in a 96-well plate and stored at –70°C until analysed. The dilution factor was accounted for in the data analysis. After i.t. dosing, animals were euthanized with isoflurane or pentobarbital at defined timepoints after dosing, blood samples taken from the vena jugularis or arteria carotis, handled and stored as described above. The rats were bled to drain as much blood as possible from the lungs. The lungs including the trachea were carefully dissected out with all non-relevant tissue removed, placed in pre-weighed vials and weighed. The lung vials were stored at –70°C until analyzed.
Lung tissue was frozen in liquid nitrogen and homogenised using a CryoPrep pneumatic hammer. The homogenisation of the tissue and the extraction of the compound were done in 4ml Ringer solution with an Adaptive Focused Acoustic Instrument. 50µl of the supernatant was transferred to a 96-well plate. All lung, blood and plasma samples were analysed by LC-MS/MS using a selective and sensitive method. Peak areas were used in comparison to those produced by the standard curve to determine parent compound concentrations. Homogenate concentrations were adjusted to account for the sample dilutions to give tissue concentrations.

Sequence of A2a (P29274 whole entry): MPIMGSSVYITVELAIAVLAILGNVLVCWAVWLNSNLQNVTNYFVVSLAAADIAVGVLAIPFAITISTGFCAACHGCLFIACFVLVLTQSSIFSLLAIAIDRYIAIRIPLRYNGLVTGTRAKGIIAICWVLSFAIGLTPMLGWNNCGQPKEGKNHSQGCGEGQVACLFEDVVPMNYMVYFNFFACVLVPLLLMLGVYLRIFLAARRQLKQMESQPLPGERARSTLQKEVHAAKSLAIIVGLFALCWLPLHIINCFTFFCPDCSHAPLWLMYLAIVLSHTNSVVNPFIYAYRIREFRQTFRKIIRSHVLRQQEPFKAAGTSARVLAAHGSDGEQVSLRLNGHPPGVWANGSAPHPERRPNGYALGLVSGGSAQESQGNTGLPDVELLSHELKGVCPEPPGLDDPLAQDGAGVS

EC50 (human A2b receptors): 3.6 µM
Effect in binding assay, A2a (A2a): ~100%
Increase of rat lung t½ in comparison with UK-432,097 ([2]; i.t.): 13 fold
Rat blood clearance ([2]; i.v., mean of n = 3): 19 mL/min per kg
half-life ([2]; lung, inhaled or intranasal, rat, intratracheal dosing, n = 2/time point, read-out: Lung t½ (terminal half-life in lung) (converted)): 53 h
Kp at 24 h ([2]; other: intratracheal (i.t.), rat, i.t., ratio of lung concentration 24 h after dose to blood Cmax after same dose, read-out: Lung/blood split): 460
Percentage of dose remaining in lung at 24 h ([2]; rat, single i.t. dose (17 and 20 μmol/kg for compounds 2 and 3 as printed in Fig. 5), 24 h): 28%
bioavailability ([2]; whole blood, 6 umol/kg, rat, oral, mean of n = 3, read-out: Rat oral F (bioavailability)): 0.3%
Compound: CCNC(=O)[C@H]1O[C@@H](n2cnc3c(NC(CC)CC)nc(NCCNC(=O)Nc4cc[n+](C)cc4)nc32)[C@H](O)[C@@H]1O [Compound 2, (2S,3S,4R,5R)-N-ethyl-5-[6-(1-ethylpropylamino)-2-[2-[(1-methylpyridin-1-ium-4-yl)carbamoylamino]ethylamino]purin-9-yl]-3,4-dihydroxy-tetrahydrofuran-2-carboxamide]
Inhibition of recovered neutrophils in BAL fluid ([1]; 0.1 μg/kg i.t. single dose 24 h prior to LPS): 9%
Inhibition of recovered neutrophils in BAL fluid ([1]; 1 μg/kg i.t. single dose 24 h prior to LPS): 17%
Inhibition of recovered neutrophils in BAL fluid ([1]; 10 μg/kg i.t. for five consecutive days, LPS 24 h after last dose): 53%
Inhibition of recovered neutrophils in BAL fluid ([1]; 10 μg/kg i.t. for three consecutive days, LPS 24 h after last dose): 39%
Inhibition of recovered neutrophils in BAL fluid ([1]; 10 μg/kg i.t. single dose 24 h prior to LPS (n.s., P = 0.086)): 39%
Reduction of total cells and neutrophilia in BAL fluid ([1]; 36 and 24 h pre-treatment before LPS): significant reduction
Reduction of total cells and neutrophilia in BAL fluid ([1]; 12 h pretreatment before LPS): not significant
Maximum inhibition of neutrophil recruitment ([1]; single i.t. dose of 10 μg/kg, rodents, previous dose-response studies): 40–50%
